Laboratory results as given in patent publication US9399631B2, “Polyphenol proteasome inhibitors, synthesis, and methods of use” (UNIVERSITY OF SOUTH FLORIDA, priority 2003, dated 2016).
Entries after “also recorded” stand apart in the source; their conditions may differ. Like-named read-outs stand apart in the source and are kept apart here.

Columns and labels:
[1] = biological target: T1, 20S eukaryotic proteasome (Oryctolagus cuniculus, UniProt G1T4Q9); assay: Inhibition of chymotrypsin-like activity of purified eukaryotic 20S proteasome (Suc-Leu-Leu-Val-Tyr-AMC); type: biochemical, rabbit; conditions: chymotrypsin-like activity, rabbit 20S proteasome
T1 construct: purchased BOSTON BIOCHEM (Cambridge, Mass.)
T1 sequence (G1T4Q9 1-263): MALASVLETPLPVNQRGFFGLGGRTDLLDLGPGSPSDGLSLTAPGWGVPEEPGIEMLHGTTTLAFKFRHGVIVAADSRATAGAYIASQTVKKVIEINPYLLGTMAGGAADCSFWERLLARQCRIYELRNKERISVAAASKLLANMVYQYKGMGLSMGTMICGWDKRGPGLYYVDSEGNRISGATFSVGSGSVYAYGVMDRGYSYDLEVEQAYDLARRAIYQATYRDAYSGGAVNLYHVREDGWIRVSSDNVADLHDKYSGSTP
Experimental: Materials. Highly purified tea polyphenols (−)-EGCG (>95%), (−)-GCG (>98%), (−)-ECG (>98%), (−)-CG (>98%), fetal calf serum, propidium iodide, 3-[4,5-dimethylthiazol-2-yl]-2,5-diphenyltetrazolium bromide (MTT), RNase A, and DMSO were purchased from Sigma (St. Louis, Mo.). (+)-EGCG, benzyl-protected-(+)-EGCG, (+)-GCG, (−)-EGCG-amide, and (+)-EGCG-amide were prepared by enantioselective synthesis (see below). Purified 20S eukaryotic proteasome from rabbit was purchased from BOSTON BIOCHEM (Cambridge, Mass.). Purified 20S prokaryotic proteasome (Methanosarcina thermophile, Recombinant, E. coli) was purchased from CALBIOCHEM (La Jolla, Calif.). Fluorogenic peptide substrates Suc-Leu-Leu-Val-Tyr-AMC (for the proteasomal chymotrypsin-like activity) was obtained from Calbiochem (La Jolla, Calif.). RPMI 1640 medium, Dulbecco's modified Eagle's medium, MEM non-essential amino acids solution, MEM-sodium pyruvate solution, penicillin, and streptomycin were from INVITROGEN (Carlsbad, Calif.). Monoclonal antibody to p27^Kip was purchased from PHARMINGEN (San Diego, Calif.); polyclonal antibodies to IκB-α, Bax and actin, and monoclonal antibody to ubiquitin were from SANTA CRUZ Biotechnology Inc. (Santa Cruz, Calif.).
(§1) Inhibition of purified 20S proteasome activity by natural or synthetic GTPs. Purified prokaryotic (0.5 μg) or eukaryotic (0.02 μg) 20S proteasome was incubated with 20 μM fluorogenic peptide substrate, Suc-Leu-Leu-Val-Tyr-AMC for 30 min at 37° C. in […] of assay buffer (50 mM Tris-HCl, pH 7.5), with or without a natural or synthetic tea polyphenol. After incubation, production of hydrolyzed 7-amido-4-methyl-coumarin (AMC) groups was measured using a multi-well plate VERSAFLUOR Fluorometer with an excitation filter of 380 nm and an emission filter of 460 nm (BIO-RAD), and a multi-well plate reader Wallac 1420 VICTORTM^2 with an excitation filter of 355 nm and an emission filter of 460 nm (EG&G WALLAC).
Purified prokaryotic (0.5 μg) or eukaryotic (0.02 μg) 20S proteasome was incubated with 20 μM fluorogenic peptide substrate, Suc-Leu-Leu-Val-Tyr-AMC for 30 minutes at 37° C. in 100 μl of assay buffer ([…] Tris-HCl, pH 7.5), with or without a natural or synthetic tea polyphenol. After incubation, production of hydrolyzed AMC groups was measured using a multi-well plate VERSAFLUOR Fluorometer with an excitation filter of 380 nm and an emission filter of 460 nm.
(−)-EGCG at 1 μM was incubated with eukaryotic 20S proteasome (0.02 μg) and suc-LLVY-AMC (20 μM) for the times indicated in FIG. 7. The chymotrypsin activity was measured and graphed in FIG. 7. Values are means from 4 independent experiments, and error bars represent standard deviations.
In the second experiment (−)-EGCG at 1 μM was pre-incubated with (SDS-pre) or without 0.01% SDS (no SDS) for 1 hour, followed by addition of eukaryotic 20S proteasome (0.02 μg) and suc-LLVY-AMC (20 μM). “SDS-post” represents the same treatment as “no SDS” except 0.01% SDS was added 1 hour after addition of the proteasome, (−)-EGCG and the substrate. AMC liberation was measured by fluorescence at each indicated time point and the percentage of chymotrypsin activity was determined. Values are means from 4 independent experiments, and error bars represent standard deviations.

[2] = test system: LNCaP cells; assay: Western blot of proteasome target proteins in LNCaP cells; type: cell-based, human; conditions: 25 μM, up to 9 hours
Experimental: (§2) Cell Culture, Cell Extract Preparation, and Western Blot Assay. Human leukemia Jurkat T and prostate cancer LNCaP cells were cultured in RPMI 1640 medium supplemented with 10% fetal calf serum, 100 units/ml of penicillin, and 100 μg/ml streptomycin. Human immortalized, non-transformed NK cells (YT cell line) (38) were cultured in RPMI 1640 supplemented with 1 mM MEM sodium pyruvate solution, 0.1 mM MEM non-essential amino acids solution, 10% fetal calf serum. 100 units/ml penicillin, and 100 μg/ml streptomycin. Normal (WI-38) and simian virus 40 (SV40)-transformed (VA-13) human fibroblasts were grown in Dulbecco's modified Eagle's medium supplemented with 10% fetal calf serum, 100 units/ml of penicillin and 100 μg/ml of streptomycin. All cells were maintained at 37° C. in a humidified incubator with an atmosphere of 5% CO2. A whole cell extract was prepared in accordance with An et al. (An, B. et al. Cell Death Differ, 1998, 5:1062-75). Briefly, cells were harvested, washed with PBS twice, and homogenized in a lysis buffer [50 mM Tris-HCl (pH 8.0), 5 mM EDTA, 150 mM NaCl, 0.5% NP-40, 0.5 mM phenylmethylsulfonyl fluoride, and 0.5 mM dithiothreitol] for 30 min at 4° C. Afterwards, lysates were centrifuged at 12,000×g for 15 min at 4° C., and the supernatants were collected as whole cell extracts. Equal amounts of protein extract (60 μg) were resolved by SDS-polyacrylamide gel electrophoresis and transferred to a nitrocellulose membrane using a Semi-Dry Transfer system (BIO-RAD, Hercules, Calif.). Jurkat T, LNCaP, or DU-145 cells were treated with various concentrations of synthetic or natural tea polyphenols for indicted hours. The enhanced chemiluminescence (ECL) Western blot analysis was then performed using specific antibodies to the proteins of interest (p^27kip, IκB-α, PARP, Bax or actin). The ratio of p27 or IκB-α to the corresponding actin was determined by scanning intensities of the protein bands.
To investigate whether (−)-EGCG-amide and (+)-EGCG-amide inhibit intact tumor cell proteasome activity, human prostate cancer LNCaP cells were treated with 25 μM of (−)- or (+)-EGCG-amide for up to 9 hours, followed by measurement of p27, IκB-α and Bax, three well-known proteasome target proteins (Pagano, M. et al. Science, 1995, 269:682-685; An, B. et al. Cell Death Differ, 1998, 5:1062-75; Sun, J. et al. Cancer Res, 2001, 61:1280-1284; Palombella, V. J. et al. Cell, 1994, 78:773-785; Thompson, J. E. et al. Cell, 1995, 80:573-582; Perkins, N. D. Trends Biochem Sci, 2000, 25:434-440; Chang, Y. C. et al. Cell Growth Differ, 1998, 9:79-84; Li, B. and Dou, Q. P. Proc Natl Acad Sci USA, 2000, 97:3850-3855; Nam, S. et al. Cancer Epidemiol Biomarkers Prey, 2001, 10:1083-1088). In this experiment (−)-EGCG and (+)-EGCG were used as positive controls.
Having determined that the synthetic GTP-1 to −5 analogs are able to inhibit the proteasomal chymotrypsin-like activity in vitro (FIG. 8), these compounds were investigated for their potency in inhibiting intact tumor cellular proteasome activity. To do so, human prostate cancer LNCaP cells were treated with one of these compounds for the indicated hours, followed by measuring levels of proteasome target proteins, p27, IκB-α, and Bax, and polyubiquitinated proteins.

[3] = test system: VA-13 cells; assay: Western blot of p27 in SV40-transformed VA-13 fibroblasts; type: cell-based, human; conditions: 25 μM, 12 hours
Experimental: as §2
Normal WI-38 and SV40-transformed VA-13 cell lines were treated with 25 μM of (−)-EGCG, (−)-EGCG-amide, (+)-EGCG, (+)-EGCG-amide, or GTP-1 for either 12 hours or 36 hours.

[4] = test system: MCF-7 cells; assay: Proteasome inhibition / p27 accumulation in MCF-7 cells; type: cell-based, human
[5] = test system: purified 20S proteasome; assay: Inhibition of chymotrypsin-like activity of purified 20S proteasome (source not stated); type: biochemical
Experimental: as §1

[6] = test system: LNCaP cells; assay: Soft agar colony formation assay; type: cell-based, human; conditions: 10 μM, 14 day-incubation
Experimental: Soft Agar Assay. The soft agar assay was performed according to Smith et al. (Smith, D. M. et al. Mol Med, 2002, 8:382-392) with a few modifications. In brief, in a six-well plate, a bottom feeder layer (0.6% agar) was prepared with DMEM media containing 10% fetal bovine serum, 100 units/ml penicillin, and 100 μg/ml streptomycin. A top layer (0.3% agar) was prepared with DMEM and the same media as described above but containing 2×10^4 prostate cancer LNCaP cells and indicated analogs or DMSO as a control. Plates were incubated at 37° C. in 5% CO2 in a humidified incubator for two weeks. MTT (1 mg/ml) was added to each well and incubated overnight to allow complete formation of purple formazan crystals. The plates were then scanned and photographed, and the number of colonies was quantified by QUANTITY ONE v.4.0.3 software (Bio-Rad, Hercules, Calif.).
The […] effects of several GTP analogs were investigated with a soft agar assay that measures the transforming activity of human tumor cells. LNCaP cells were plated in soft agar (see Materials and Methods) along with 50 μM of GTP-1, -2, -3, (−)-EGCG (as a positive control; Smith, D. M. et al. Mol Med, 2002, 8:382-392, 2002), or the solvent (as a negative control), followed by a 14 day-incubation to allow for colony formation (FIGS. 12A and 12B).
In a second experiment, LNCaP cells were plated in soft agar along with 10 μM of each indicated GTP or solvent (H2O), followed by a 14 day-incubation to allow for colony formation (FIG. 21A). […] Colonies were quantified with an automated counter and presented as mean values from triplicate independent experiments. Error bars denote standard deviations.

[7] = test system: 26S proteasome in a Jurkat cell lysate; assay: Chymotrypsin-like activity of 26S proteasome in Jurkat cell lysate; type: biochemical, human; conditions: 10 μM
Experimental: To determine the specificity of the synthetic GTP analogs, their effects were tested on the chymotrypsin-like and trypsin-like activities of the 26S proteasome in a Jurkat cell lysate. […] (+)-GCG at the same concentration inhibited ˜50% of the chymotrypsin-like activity. The potencies of (+)-EGCG and (+)-GCG were similar to those of their natural partners, respectively (FIG. 17A). […] Furthermore, none of the synthetic or control natural compounds could inhibit more than 15% of activity of a purified calpain enzyme (FIG. 17C). […] Values are mean triplicates and error bars denote standard deviations.

[8] = biological target: purified 20S proteasome (UniProt Q9P992); assay: Inhibition of chymotrypsin-like activity of purified 20S proteasome (source not stated); type: biochemical; design: other: 1 μM; other: 10 μM; conditions: 10 μM
Sequence of purified 20S proteasome (UniProt Q9P992) (Q9P992 whole entry): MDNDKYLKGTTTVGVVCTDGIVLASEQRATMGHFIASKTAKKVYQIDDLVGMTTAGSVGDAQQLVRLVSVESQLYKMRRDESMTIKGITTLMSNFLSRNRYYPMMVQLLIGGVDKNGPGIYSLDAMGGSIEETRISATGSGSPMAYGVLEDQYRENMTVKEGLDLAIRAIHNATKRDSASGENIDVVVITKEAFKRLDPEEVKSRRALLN
Experimental: as §1

| SMILES | IC50 [1] | levels of p27, IκB-α and Bax [2] | levels of p27 protein [3] | inhibition of proteasome activity / accumulation of p27 [4] | inhibition of the proteasome (in words) [5] | inhibition of the proteasome (in words) ([5]; listed as benzyl protected-EGCG) | inhibition of colony formation [6] | inhibition of chymotrypsin-like activity of 26S proteasome [7] | inhibition of proteasomal activity [8] |
| --- | --- | --- | --- | --- | --- | --- | --- | --- | --- |
| O=C(N[C@H]1Cc2c(O)cc(O)cc2O[C@H]1c1cc(O)c(O)c(O)c1)c1cc(O)c(O)c(O)c1 [(+)-EGCG-amide, (+)-[2S, 3S]-N-[5,7-Dihydroxy-2-(3,4,5-trihydroxyphenyl)-chroman-3-yl]-3,4,5-trihydroxybenzamide] | 405 nM | able to increase levels of p27, IκB-α and Bax by 3 hours | significantly increased levels of p27 protein | able to inhibit the proteasome activity | – | – | – | – | – |
| O=C(O[C@H]1Cc2c(OCc3ccccc3)cc(OCc3ccccc3)cc2O[C@H]1c1cc(OCc2ccccc2)c(OCc2ccccc2)c(OCc2ccccc2)c1)c1cc(OCc2ccccc2)c(OCc2ccccc2)c(OCc2ccccc2)c1 [Bn-(+)-EGCG] | – | – | – | – | can not inhibit the proteasome | cannot inhibit the proteasome; also recorded: fails to inhibit the proteasome | ~10% | could not inhibit the proteasomal chymotrypsin activity at all | did not significantly inhibit |
